Data taken from publication PMC3661587, “Estrone-3-Sulphate, a Potential Novel Ligand for Targeting Breast Cancers” (PLoS ONE, 2013).
Like-named read-outs stand apart in the source and are kept apart here.

Details: mouse, in vivo
Experimental: Solid phase extraction (SPE) and HPLC analysis of plasma were performed as previously described with minor modifications, [23]. SPE was performed using Sep-Pak C18 columns (Waters, Mississauga, ON). The column was activated using methanol, followed by water. 100 µL of plasma was then loaded on to the activated column. This was followed by successive washing steps with water and hexane. The analyte was eluted from the column using methanol and then dried under a stream of N2. The sample was reconstituted in DMSO:Methanol 1∶1 v/v prior to HPLC analysis. […] The radioactivity in each eluate was determined by liquid scintillation counting. […] The methanol eluates were used for HPLC analysis.
Separation was performed using a Waters C18 reversed-phase HPLC column (XTerra RP-C18, 5 µm, 4.6×250 mm I.D.) Analytes were eluted using an isocratic-gradient of 20 mM ammonium sulphate buffer (solvent A) and methanol (solvent B). The mobile phase consisted of solvent A/solvent B; 60/40% for 0–5 min, followed by a linear gradient of 60/40% to 25/75% for 5–45 and 25/75% for 45–50 min at a flow rate of 1.0 mL/min and UV detection at 280 nm. The HPLC eluate from the UV detector was collected every minute for over 50 min in eppendorf tubes and radioactivity in each sample was determined.

## C[C@]12CC[C@@H]3c4ccc(O)cc4CC[C@H]3[C@@H]1CCC2=O [Estrone, estrone]
2 h
  % of total radioactivity in plasma: 1.02±0.24%
6 h
  % of total radioactivity in plasma: 1.7±0.8%

## C[C@]12CC[C@@H]3c4ccc(O)cc4CC[C@H]3[C@@H]1CC[C@@H]2O [Estradiol, estradiol]
2 h
  % of total radioactivity in plasma: 2.2±1.23%
6 h
  % of total radioactivity in plasma: 3.2±0.2%
48 h
  % of total radioactivity in plasma: 3.2±0.45%
